Holding throughout (experiment): NCI-60 cell line screen, 48 h
For assay [1], the system named is A549 NSCLC.
Assay [2] relates to DU-145 prostate.
Assay [3] has as its system IGROV1 ovarian.
The test system of assay [4] is M14 melanoma.
The test system of assay [5] is MDA-MB-435.
Assay [6] concerns NCI-H522 lung.
Assay [7] concerns SNB-19 CNS.
Assay [8] concerns SW-620 colon.
Assay [9] relates to U251 CNS.
Assay [10] relates to UACC-257 melanoma.

Values joined by “and” are separate entries in the source; they are usually repeats but may differ in a detail not shown here. Equal values may be shown once.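 Assay format: 96-well plates, 48-hour exposure. GI50 marks 50% less growth. At the TGI there is no net growth.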

On to `CNCC(=O)NC(CO)C(=O)NC(CO)C(=O)NC1C(C(N)=O)OC(n2ccc(N)nc2=O)C(O)C1O` (stereo unspecified), for which the GI50 in [1] is 17 µg/mL; in assay [2], 13 µg/mL; in [3], 3.33 µg/mL; in assay [4] it was 9.22 µg/mL; in assay [5], 41.9 µg/mL; in assay [6], 1.85 µg/mL. The GI50 in assay [7] was 6.5 µg/mL; in assay [8], above 50 µg/mL; in assay [9], 10.9 µg/mL; in [10] it was 13.7 µg/mL. Moreover, the TGI in assay [1] is above 50 µg/mL; in assay [2], above 50 µg/mL; in assay [3] it was 26.4 µg/mL; in assay [4], 35.3 µg/mL; in [5], above 50 µg/mL; in assay [6], 8.98 µg/mL. For the same compound, the TGI in assay [7] was 45.1 µg/mL; in [8], above 50 µg/mL; in [9], above 50 µg/mL; in assay [10], above 50 µg/mL.

On to `O=C(N/N=C/c1cc(Cl)ccc1O)c1ccccc1Nc1ccnc(C(F)(F)F)c1`, for which the GI50 is 1.26 µM in assay [1]; 0.362 µM in assay [2]; 0.361 µM in assay [3]; 0.407 µM in assay [4]; 1.16 µM in [5]; 0.689 µM in assay [6]. The GI50 in assay [7] is 0.89 µM; in [8], 0.612 µM; in assay [9] it was 0.335 µM; in assay [10], 1.43 µM. Besides, the TGI in assay [1] was 23.3 µM; in assay [2] it was 18.8 µM; in assay [3], 13.3 µM; in assay [4] it was 2.26 µM; in assay [5], 16.9 µM; in assay [6] it was 6.53 µM. For the same compound, the TGI was 24.3 µM in [7], 12.7 µM in [8], 9.41 µM in assay [9] and 7.54 µM in assay [10].

For the compound `Cc1ccc(-c2c3c(nn2-c2ccc(S(=O)(=O)NC(=O)NC4CCCCC4)cc2)-c2ccccc2C3)cc1`, the GI50 in [1] is 20.2 µM; in [2], 14.3 µM; in assay [3], 12.9 µM; in assay [4], 14.8 µM; in assay [5], 19 µM; in assay [6] it was 12 µM. Besides, the GI50 in assay [7] is 20.1 µM; in assay [8] it was 2.65 µM; in assay [9], 12.3 µM; in assay [10] it was 23.7 µM. For the same compound, the TGI was determined as 44 µM in [1]; 28.7 µM in [2]; 27.9 µM in assay [3]; 30.1 µM in assay [4]; 41.4 µM in assay [5]; 28.9 µM in assay [6]. Besides, the TGI in assay [7] was found to be 49.7 µM; in assay [8], 6.31 µM; in assay [9] it was 26.9 µM; in assay [10], 49.6 µM.

Consider `O=c1cc(-c2ccccc2)oc2cc(OCCCCCN3CCOCC3)cc(O)c12`, for which the GI50 in assay [1] was above 100 µM; in [2] it was above 100 µM; in assay [3] it was 47.4 µM; in assay [4], above 100 µM; in [5], above 100 µM; in assay [6], 31 µM. Also, the GI50 in [7] is 23.9 µM; in assay [8], above 100 µM; in assay [9], 18.6 µM; in assay [10], above 100 µM. Moreover, the TGI in assay [1] was above 100 µM; in assay [2] it was above 100 µM; in [3], above 100 µM; in assay [4] it was above 100 µM; in assay [5], above 100 µM; in assay [6] it was 94.9 µM. The TGI was 71.6 µM in assay [7], above 100 µM in assay [8], 45.5 µM in assay [9] and above 100 µM in [10].

Regarding `CCN(CC)S(=O)(=O)c1cccc(-c2ccc3c(NC(=O)C4CC4)n[nH]c3c2)c1`, the GI50 in assay [1] is 2.79 µM; in [2], 2.26 µM; in assay [3], 3.79 µM; in [4] it was 1.47 µM; in [5], 0.283 µM; in assay [6], 1.08 µM. In addition, the GI50 in [7] is 3.13 µM; in [8], 2.27 µM; in assay [9], 2.1 µM; in [10] it was 2.26 µM. The TGI in assay [1], in assay [2], in assay [3], in assay [4], in [5] and in assay [6] was above 6.25 µM each time. Besides, the TGI in assay [7], in assay [8], in [9] and in [10] was above 6.25 µM in each case.

`Cc1ccc(NC(=S)C#N)c(C)c1`: the TGI in [1], in [2], in assay [3], in [4], in assay [5] and in assay [6] was above 100 µM in each case. Besides, the TGI in assay [7], in [8], in assay [9] and in assay [10] was above 100 µM each time.

Regarding `Cc1nc2sc(C(=O)Nc3ccccc3)c(N)c2cc1C(O)c1ccccc1` (stereo unspecified), the GI50 in assay [1] was 0.421 µM; in [2], 0.362 µM; in [3], 0.445 µM; in [4] it was 0.182 µM; in [5] it was 0.0308 µM; in assay [6] it was 0.304 µM. Besides, the GI50 in assay [7] is 0.446 µM; in assay [8], 0.283 µM; in [9], 0.292 µM; in [10], 4.21 µM. In addition, the TGI in assay [1] was above 100 µM; in assay [2], 20.9 µM; in assay [3] it was 44.4 µM; in assay [4], 15.2 µM; in [5], 0.102 µM; in assay [6], above 24.1 µM. For the same compound, the TGI is above 100 µM in assay [7], above 100 µM in assay [8], above 100 µM in assay [9] and above 52 µM in [10].

`COc1cc(C2c3cc4c(cc3[C@@H](Nc3ccc([N+](=O)[O-])cc3)C3COC(=O)[C@H]23)OCO4)cc(OC)c1O` (stereo partly specified): the GI50 was 0.157 µM and 0.166 µM in assay [1]; 0.543 µM in assay [4]; 0.733 µM in [6]; 0.481 µM in [7]; 0.783 µM in assay [8]; 0.418 µM in [9]. The TGI in assay [1] was 3.72 µM; in assay [2] it was 37.9 µM; in assay [3], 24.3 µM; in [4], 12.7 µM; in assay [5], above 100 µM; in [6] it was 5.42 µM. Also, the TGI in [7] was 25.8 µM; in assay [8], above 91.7 µM; in assay [9], 7.69 µM; in [10] it was 34.5 µM.

With `COc1c(B(O)O)cccc1-c1nc2ccc3[nH]ncc3c2c2c1CCCC2`, the GI50 in assay [1] is 2.55 µM; in assay [2] it was 2.23 µM; in assay [3] it was 2.25 µM; in assay [4], 4.06 µM; in assay [5], 3.45 µM; in assay [6], 1.41 µM. Besides, the GI50 in [7] was 2.68 µM; in assay [8] it was 1.17 µM; in [9], 2.69 µM; in assay [10] it was 2.88 µM. Also, the TGI in assay [1] was above 34.9 µM; in [2], 25.9 µM; in [3], 14.3 µM; in assay [4] it was 13.2 µM; in [5] it was 12.1 µM; in [6] it was 10.5 µM. The TGI in assay [7] was found to be 28.1 µM; in [8] it was 12.1 µM; in [9], 18.5 µM; in [10], 24.6 µM.

Regarding `COC(=O)c1c2c(c(C)[n+]([O-])c1C)C(=O)C(NCc1ccc(F)cc1)=CC2=O`, the GI50 in assay [1] is 1.79 µM; in assay [2] it was 2.11 µM; in assay [3], 1.15 µM; in [4], 1.21 µM; in assay [5], 0.582 µM; in assay [6], 1.7 µM. For the same compound, the GI50 in assay [7] is 2.1 µM; in assay [8], 1.17 µM; in assay [9], 1.81 µM; in assay [10], 0.845 µM. Moreover, the TGI in assay [1] was found to be 5.66 µM; in assay [2] it was 4.76 µM; in [3], 2.76 µM; in [4], 2.69 µM; in assay [5], 1.84 µM; in [6] it was 4.02 µM. Also, the TGI in [7] worked out at 5.2 µM; in [8], 3.2 µM; in assay [9], 5.14 µM; in assay [10], 2.44 µM.

Take `O=C(NNc1ccccc1)c1ccc(Cl)c(Cl)c1`: the TGI in assay [1] was above 100 µM; in [2], above 100 µM; in [3] it was above 60.7 µM; in assay [4], above 100 µM; in assay [5] it was above 100 µM; in [6], 23 µM. The TGI was above 100 µM in [7], above 100 µM in [8], above 100 µM in [9] and 13.9 µM in assay [10].

`O=C(CSC(c1ccccc1)c1ccccc1)N/N=C/c1ccccc1Cl`: the GI50 was 13.6 µM in assay [1]; 50.6 µM in assay [2]; 8.07 µM in assay [3]; 36.8 µM in assay [4]; 49.6 µM in [5]; 30.2 µM in assay [6]. The GI50 is 43.9 µM in assay [7], 34.7 µM in assay [8], 25.8 µM in assay [9] and 7.05 µM in assay [10]. The TGI is above 57.3 µM in assay [1]; above 100 µM in assay [2]; above 55.6 µM in [3]; above 100 µM in [4]; above 100 µM in [5]; above 100 µM in assay [6]. The TGI in [7] was above 100 µM; in [8] it was above 100 µM; in assay [9], above 58.4 µM; in [10] it was 63.8 µM.

As to `CC1=NN(c2cccc(Cl)c2)C(=O)/C1=C\C=C\c1ccccc1`, the GI50 in [1] was 16.4 µM; in assay [2] it was 2.91 µM; in [3], 1.67 µM; in assay [4], 1.7 µM; in assay [5], 2.5 µM; in [6] it was 2.63 µM. In addition, the GI50 in [7] is 5.67 µM; in assay [8], 1.74 µM; in [9] it was 1.78 µM; in assay [10] it was 2.13 µM. For the same compound, the TGI in assay [1] was above 100 µM; in [2], 12.1 µM; in assay [3], 4.23 µM; in [4], 3.57 µM; in [5], 7.37 µM; in assay [6], 6.84 µM. Besides, the TGI was above 100 µM in assay [7], 3.44 µM in assay [8], 4.42 µM in assay [9] and 7.26 µM in assay [10].

Take `C[C@H]1COCCN1c1nc(-c2cnc(N)cc2C(F)F)nc(N2CCOCC2)n1`: the GI50 is 0.199 µM in [1]; 0.285 µM in [2]; 0.0364 µM in assay [3]; 0.129 µM in assay [4]; 0.182 µM in assay [5]; 0.148 µM in assay [6]. Further, the GI50 in [7] is 0.3 µM; in assay [8], 0.258 µM; in [9], 0.368 µM; in [10], 0.166 µM. Moreover, the TGI in assay [1] was above 100 µM; in assay [2], above 100 µM; in assay [3], 0.285 µM; in assay [4] it was 29.7 µM; in assay [5], 5.27 µM; in [6], above 60.8 µM. Besides, the TGI in assay [7] was 13.8 µM; in [8], above 100 µM; in [9], above 100 µM; in assay [10], 1.58 µM.

`CC1=CC(C)(C)Nc2ccc(Cc3ccc4c(c3)C(C)=CC(C)(C)N4)cc21`: the GI50 in assay [1] was 12.2 µM; in assay [2], 10.1 µM; in [3], 16.1 µM; in assay [4] it was 28.4 µM; in assay [5], 16.5 µM; in [6], 3.56 µM. Further, the GI50 in assay [7] is 17.2 µM; in [8], 11.5 µM; in assay [9], 3.96 µM; in assay [10] it was 7.06 µM. Besides, the TGI in assay [1] is above 100 µM; in assay [2], 76.1 µM; in [3] it was above 100 µM; in [4], above 100 µM; in assay [5] it was above 100 µM; in assay [6], 16.1 µM. The TGI in assay [7] was above 100 µM; in assay [8], 25.5 µM; in assay [9], above 100 µM; in assay [10], 72.1 µM.

(Values after PubChem BioAssay (NCI).)
